The compounds below were run against T1, glucagon receptor (Homo sapiens, UniProt P47871) (assay: glucagon receptor binding assay (125I-glucagon, CHO-HGR membranes)). Conditions: 20 μM; reported where 20 μM did not reduce glucagon binding by 50%.
T1 construct: expressed in transfected cells; host or cells: Chinese Hamster Ovary cells (CHO-HGR), membranes
T1 sequence (P47871 26-477): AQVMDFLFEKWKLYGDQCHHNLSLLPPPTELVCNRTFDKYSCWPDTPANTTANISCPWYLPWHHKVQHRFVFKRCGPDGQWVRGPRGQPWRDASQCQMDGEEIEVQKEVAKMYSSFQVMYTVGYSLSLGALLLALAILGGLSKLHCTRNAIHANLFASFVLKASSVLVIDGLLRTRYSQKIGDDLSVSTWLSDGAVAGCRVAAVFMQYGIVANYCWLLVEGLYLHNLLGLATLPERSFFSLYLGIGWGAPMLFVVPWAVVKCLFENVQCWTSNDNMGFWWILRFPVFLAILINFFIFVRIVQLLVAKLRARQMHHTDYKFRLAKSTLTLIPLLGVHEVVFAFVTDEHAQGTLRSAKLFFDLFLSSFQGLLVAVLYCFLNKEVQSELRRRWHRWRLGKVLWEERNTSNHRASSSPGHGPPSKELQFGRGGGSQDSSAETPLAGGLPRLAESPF
Experimental: The affinity for the glucagon receptor of compounds of the present invention is determined by the glucagon receptor binding assay. Membranes were prepared from Chinese Hamster Ovary cells expressing the glucagon receptor (CHO-HGR) by scraping the cells into hypotonic lysis buffer (10 mM Tris, pH 7.4, 2 mM EDTA, 5 mM MgCl2 and 1 mM PMSF) and subjecting the material to Polytron homogenization. Nuclei were removed by a 15-min 800×g centrifugation step conducted at 4° C. Membranes containing the receptor were collected by centrifugation at 15,000×gfor 15 min at 4° C. The membranes were washed once in lysis buffer and suspended in 0.25 M sucrose, 10 mM Tris, 5 mM EDTA, pH 7.4. The membranes were used in ligand binding studies as reported (Yoo-Warren, H., Willse, A. G., Hancock, N., Hull, J., McCaleb, M., and Livingston, J. Regulation of Rat Glucagon Receptor Expression. Biochem. Biophysical Res. Commun. 1994, 205, 347-353). In brief, 10 ug of membrane protein was incubated in 130 μl of binding buffer that consisted of 20 mM Tris, […], 1 mM EDTA, 1 mg/ml BSA, and 1 mg/ml bacitracin. The membrane suspension was placed in each well of a 96-well filtration plate (glass fiber type C, Millipore). […] Following the addition of test compound, 50 μl of ^125 I-glucagon (9 fmol) (NEN) was added to each well. Control wells contained membranes, 0.5% DMSO (solvent for test compounds), radiolabeled glucagon without and with excess native glucagon (1 μM) to establish nonspecific binding. The plates were incubated for 60 min at room temperature, and then filtered on a Mllipore vacuum apparatus. Following a wash step with ice-cold PBS/0.1% BSA, the filters were punched into test tubes, and the membrane bound radioactivity was determined.
Work on `CCCCCc1c(C(C)C)nc(C(C)C)c(C(O)CCCC)c1-c1ccc(F)cc1` (racemic) [Example 115, (±)-2,6-Diisopropyl-3-(1-hydroxypentyl)-4-(4-fluorophenyl)-5pentyl-pyridine] yielded an inhibition at 20 µM of 21.1%. `CCCCCc1c(C(C)C)nc(C(C)C)c(CN)c1-c1ccc(F)cc1` [Example 121, 2,6-Diisopropyl-3-aminomethyl-4-(4fluorophenyl)-5-pentylpyridine] showed an inhibition at 20 µM of 26.2%. Work on `CCCCCc1c(C(C)C)nc(C(C)C)c(CO)c1-c1ccc(F)c(C(C)O)c1` (centres unmarked) [Example 182, 2,6-Diisopropyl-3-hydroxymethyl-4-[4-fluoro-3-(1-hydroxyethyl)phenyl]-5-pentylpyridine] yielded an inhibition at 20 µM of 49.1%. Compound `CCCCCc1c(CO)nc(C(C)C)c(CO)c1-c1ccc(F)cc1` [Example 200, 2,5-Bis(hydroxymethyl)-3-pentyl-4-(4-fluorophenyl)-6-isopropylpyridine] has an inhibition at 20 µM of 32.8%. In the case of `CCCCCc1c(C(C)C)nc(C(C)C)c(CNC)c1-c1ccc(F)cc1` [Example 120, 2,6-Diisopropyl-3-methylaminomethyl-4-(4-fluorophenyl)-5-pentyl-pyridine], the inhibition at 20 µM is reported as 37%. In the case of `CC(C)c1nc(C(C)C)c(Cn2ccnc2)c(-c2ccc(F)cc2)c1CO` [Example 76, 2,6-Diisopropyl-3-hydroxymethyl-4-(4-fluorophenyl)-5-(imidazol-1-yl)-methylpyridine], the inhibition at 20 µM is reported as 5.18%. Compound `CCCCCc1c(C(C)C)nc(C(C)C)c(C(O)C[S@+]([O-])c2ccc(C)cc2)c1-c1ccc(F)cc1` (single isomer, unassigned) [Example 112] has an inhibition at 20 µM of 4.17%. `CC(C)c1nc(C(C)C)c(CN2CCOCC2)c(-c2ccc(F)cc2)c1CO` [Example 69, 2,6-Diisopropyl-3-hydroxymethyl-4-(4-fluorophenyl)-5-(morpholinomethyl)pyridine] showed an inhibition at 20 µM of 40.2%. For `CCCCCc1c(C(C)C)nc(C(C)C)c(CO)c1-c1ccc(C(F)(F)F)cc1` [Example 126, 2,6-Diisopropyl-3-hydroxymethyl-4-[(4-trifluoromethyl)phenyl]-5-pentylpyridine], the inhibition at 20 µM was 35.3%. `CCCC=Cc1c(CC)nc(CC)c(CO)c1-c1ccccc1` [Example 6] was tested, and the inhibition at 20 µM was 34.2%.

Same assay, conditions: 125I-glucagon; 60 min at room temperature; read-out: IC50
Compound `CCCCCc1c(C(C)C)nc(C(C)C)c(C(O)CO)c1-c1ccc(F)cc1` (racemic) [Example 124, (±)-2,6-Diisopropyl-3-(1,2-dihydroxyethyl)-4-(4-fluorophenyl)-5-pentyl-pyridine] has an IC50 of 12 µM. With `CC(C)c1nc(C(C)C)c(CO)c(-c2ccc(F)cc2)c1/C=C/c1ccccc1` [Example 34, 2,6-Diisopropyl-3hydroxymethyl-4-(4-fluorophenyl)-5-[2(E)-phenyl-ethenyl]pyridine] the IC50 was 0.6 µM. Work on `CCCCCc1c(C=CC(=O)OC)nc(C(C)C)c(CO)c1-c1ccc(F)cc1` [Example 215, 2-(2-Carbomethoxyethenyl)-3-pentyl-4-(4-fluorophenyl)-5-hydroxymethyl-6-isopropylpyridine] yielded an IC50 of 19 µM. In the case of `CCCc1c(C)cc(C)c(C(C)O)c1-c1ccc(F)cc1` (centres unmarked) [Example 195, 3,5-Dimethyl-2-(1-hydroxyethyl)-6-propyl-4'-fluoro-1,1'-biphenyl], the IC50 is reported as 12 µM. Work on `CCc1c(C(C)C)nc(C(C)C)c(CO)c1-c1ccc(F)cc1` [Example 26, 2,6Diisopropyl-3-hydroxymethyl-4-(4-fluorophenyl)-5-ethylpyridine] yielded an IC50 of 1 µM. `CC(C)c1nc(C(C)C)c(CNC2CCCCC2)c(-c2ccc(F)cc2)c1CO` [Example 78, 2,6-Diisopropyl-3-hydroxymethyl-4-(4-fluorophenyl)-5-(cyclohexylamino)methylpyridine] gave an IC50 of 7.5 µM. `CCc1c(C(C)C)cc(C(C)C)c(C(C)O)c1-c1ccc(F)cc1` (single isomer, unassigned; (+)) [Example 244, (+)-3,5-Diisopropyl-2-(1-hydroxyethyl)-6-ethyl-4'-fluoro-1,1'-biphenyl] gave an IC50 of 0.18 µM. `CCCCCc1c(C=C(C)C)nc(C(C)C)c(CO)c1-c1ccc(F)cc1` [Example 226, 2-Isopropyl-3-hydroxymethyl-4-(4-fluorophenyl)-5-pentyl-6-(2-methylpropenyl)pyridine] showed an IC50 of 3 µM. `CCCCCc1c(C(C)C)nc(C(C)C)c(C(C)O)c1-c1ccccc1O` (single isomer, unassigned) [Example 164-D2, 2,6-Diisopropyl-3-(1-hydroxyethyl)-4-(2-hydroxyphenyl)-5-pentylpyridine] was tested, and the IC50 was 0.1 µM. `CCCC=Cc1c(C(C)C)nc(C(C)C)c(CO)c1-c1cccc(C)c1` [Example 139, 2,6-Diisopropyl-3-hydroxymethyl-4-(3-methylphenyl)-5-(pent-1-enyl)-pyridine] showed an IC50 of 17 µM. For `CCCC=Cc1c(C(C)C)nc(C(C)C)c(CO)c1-c1ccc(F)cc1F` [Example 150, 2,6-Diisopropyl-3-hydroxymethyl-4-(2,4-difluorophenyl)-5-(pent-1-enyl)pyridine], the IC50 was 4.5 µM. In the case of `CC(C)c1nc(C(C)C)c(CSc2cccc(F)c2)c(-c2ccc(F)cc2)c1CO` [Example 59, 2,6-Diisopropyl-3-hydroxymethyl-4-(4-fluorophenyl)-5-[(3-fluoro-phenyl)thio]methylpyridine], the IC50 is reported as 1 µM. `CCCSCc1c(C(C)C)nc(C(C)C)c(CO)c1-c1ccc(F)cc1` [Example 66, 2,6-Diisopropyl-3-hydroxymethyl4-(4-fluorophenyl)-5-(propylthio)-methylpyridine] showed an IC50 of 1 µM. In the case of `CCCCCc1c(C(C)C)nc(C(C)C)c(C(C)O)c1-c1ccc(F)cc1` (single isomer, unassigned) [Example 107, 2,6-Diisopropyl-3-(1-hydroxyethyl-4-fluorophenyl)-5-pentylpyridine], the IC50 is reported as 3 µM. For `CCCCc1c(C(C)C)nc(C(C)C)c(CO)c1-c1ccccc1` [Example 18, 2,6-Diisopropyl-3-hydroxymethyl-4-phenyl-5-butylpyridine], the IC50 was 0.75 µM. With `CCCCCc1c(C(C)C)nc(C(C)C)c(CO)c1-c1ccccc1F` [Example 138, 2,6-Diisopropyl-3-hydroxymethyl-4-(2-fluorophenyl)-5-pentylpyridine] the IC50 was 9 µM. `CC(C)c1nc(C(C)C)c(CN(C)C)c(-c2ccc(F)cc2)c1CO` [Example 79, 2,6-Diisopropyl-3-hydroxymethyl-4-(4-fluorophenyl)-5-(dimethylamino)-methylpyridine] gave an IC50 of 10 µM. Work on `C=CCC(O)c1nc(C(C)C)c(CO)c(-c2ccc(F)cc2)c1CCCCC` (centres unmarked) [Example 205, 2-(1-Hydroxybut-3-enyl)-3-pentyl-4-(4-fluorophenyl)-5-hydroxymethyl-6-isopropylpyridine] yielded an IC50 of 18 µM. `C=CCc1c(C(C)C)nc(C(C)C)c(CO)c1-c1ccc(F)cc1` [Example 87, 2,6-Diisopropyl-3-hydroxymethyl-4-(4fluorophenyl)-5-(2-propenyl)-pyridine] showed an IC50 of 1.9 µM. `CCCCCc1c(C(C)C)nc(C(C)C)c(CO)c1-c1ccccc1O` [Example 163, 2,6-Diisopropyl-3-hydroxymethyl-4-(2-hydroxyphenyl)-5-pentylpyridine] showed an IC50 of 0.5 µM. `CCCCCc1c(CCC(C)C)nc(C(C)C)c(CO)c1-c1ccc(F)cc1` [Example 229, 2-Isopropyl-3-hydroxymethyl-4-(4-fluorophenyl)-5-pentyl-6-(3-methylbutyl)pyridine] was tested, and the IC50 was 0.8 µM. `CCCCCCCCc1c(C(C)C)nc(C(C)C)c(CO)c1-c1ccc(F)cc1` [Example 36, 2,6-Diisopropyl-3-hydroxymethyl-4-(4-fluorophenyl)-5-octylpyridine] gave an IC50 of 1.8 µM.

Reference: US6218431A, “Substituted biphenyls” (Bayer Corporation, priority 1997, dated 2001)
